Data as given in patent publication US7736848B2, “Cellular targets for treatment of retroviral infection” (Fox Chase Cancer Center, priority 2002, dated 2010).

Tests used:
[1] = molecular target: ATR kinase (Homo sapiens, UniProt Q13535); conditions: in vitro; read-out: IC50 for ATR kinase inhibition; cited from earlier work
[2] = system: HIV-1-based vector; assay: Stable transduction of HeLa cells by HIV-1-lacZ vector; type: cell-based; conditions: Human immunodeficiency virus 1, HeLa, read-out: IC50, reduction in number of cells stably transduced by HIV-1 vector
Protocol: (§1) Infection of HeLa Cells. […] The virus-containing medium was then replaced with fresh medium. Two to seven days after infection with the HIV-1 vector (as indicated) cells were stained using a β-galactosidase assay (Stratagene). Cells were selected for G418 resistance one day after infection with the ASV vector by addition of 1 mg/ml G418.
(§2) After infection with ASV, G418 was also added at this time.
Transduction was measured five to six days later by the presence of β-galactosidase positive colonies.

[3] = system: ASV vector; assay: Viral DNA synthesis in ASV-infected HeLa cells (real time PCR); type: cell-based; conditions: up to 4 mM; 24 hr post-infection
Protocol: Real Time PCR. Extrachromosomal DNA from infected and uninfected cells was prepared by HIRT extraction. Real-Time PCR amplification, data-acquisition and analysis were preformed with the Cephid Smart Cycler. The Biochemistry and Biotechnology Facility at the Fox Chase Cancer Center prepared the primers using BHQ-1 non-fluorogenic quencher (Biosearch Technologies). Viral sequence primers directed against ASV pol were selected using Primer Express™ (Applied Biosystems) and had the following sequences: Forward primer, 5′-[…]-3′ (SEQ ID NO:1); Reverse primer, 5′-[…]-3′ (SEQ ID NO:2); Probe, 5′-(FAM) CC […] (BHQ)-3′ (SEQ ID NO:3). Results were normalized with those from primers against mitochondrial DNA (Asaad et al., Oncogene 19: 5788-5800, 2000). Each reaction contained 1× Reaction Buffer (20 mM Tris-HCl, pH 8.4), 50 mM KCl), 0.25 mM each dNTP, 2.5 mM MgCl2, 400 nM primers, 200 nM probe and 2.5 U Platinum Taq Polymerase (Invitrogen). Relative quantitation was calculated with the Comparative Cycle Threshold Method using the untreated samples as the reference (User, B. ABI Prism 7700 Sequence Detection System; the Perkin Elmer Corporation, P/N 4303859 Rev. A. Stock No. 77802-001, 1997). […] Relative quantitation was averaged and standard deviations were determined between independent experiments.
Synthesis of viral DNA was detected by quantitative PCR.

[4] = system: HIV-1-based vector; assay: HIV-1 vector transduction of dividing and nocodazole-arrested 293T cells; type: cell-based
Protocol: To arrest cells in M phase, cells were treated with nocodazole (1 μg/ml) for 24 hrs prior to addition of the virus. Nocodazole was maintained in the cell culture medium during and after infection. Cells were distributed in a 24-well plate at a density of 5×10^4 cells per well and nocodazole was added to a final concentration of 1 μg/ml. […] Two days post-infection, cells were stained using a β-galactosidase assay (Stratagene according to manufacturer's protocol) and blue cells counted.

[5] = system: primary human macrophages; assay: Cytotoxicity in primary human macrophages; conditions: conditions of the transduction test
[6] = molecular target: ATM kinase (Homo sapiens, UniProt Q13315); conditions: in vitro; read-out: IC50 for ATM kinase inhibition; cited from earlier work
[7] = system: HIV-1 NL4-3 (X4) strain; assay: HIV-1 NL4-3 replication in PBMCs (p24 antigen ELISA); type: cell-based; conditions: 4 mM; for drop in HIV-1 p24 antigen levels: 7 days post-infection; for p24 antigen levels vs control: 12 days post-infection; for decrease in HIV-1 p24 antigen vs NL4-3 infected control: day 3 post-infection; for inhibition of NL4-3 growth: p24 at 6 days post-infection
[8] = system: PBMC; conditions: at the utilized concentration (4 mM)
[9] = system: HIV-1 strain NL4-3; assay: 2-LTR DNA junctions (nuclear import) in NL4-3-infected PBMCs; type: cell-based; conditions: 24 hours post-infection
From the text: To determine if methylxanthines altered the nuclear import of HIV-1 pre-integration complexes (PICs), we analyzed the level of 2-LTR DNA junctions in infected cells by a quantitative DNA-PCR technique. […] To normalize the cell number, the human beta-globin gene was used as a standard (Nunnari et al., 2002, supra; Otero et al., 2003, supra).

[10] = system: HIV-1-based vector; assay: HIV-1 vector transduction of terminally differentiated primary macrophages; type: cell-based; conditions: caffeine 24 hrs
Protocol: Human peripheral blood mononuclear cells (PBMC) were isolated by centrifugation in Ficoll-Hypaque (Sigma, St. Louis, Mo., USA) from buffy coats of HIV-1 seronegative individuals. Monocyte-derived macrophages (MDM) were obtained from PBMC by adherence to plastic for 12 hours in DMEM supplemented with 10% human serum (Cellgro, Herndon, Va., USA), washed, and cultured in the same medium in the presence of macrophage colony-stimulating factor (MCSF, 2 ng/ml; Sigma, St. Louis, Mo., USA) for another 7-10 days, allowing cells to differentiate before infection. The medium was replaced twice during the incubation period. The primary cells were kept at 37° C. in a humidified incubator with 5% CO2.

[11] = molecular target: T1, HIV-1 integrase (Human immunodeficiency virus type 1 group M subtype B, UniProt P04585); assay: In vitro integrase activity, HIV-1 integrase; type: biochemical; conditions: up to 10 mM
T1 construct: For HIV-1 integrase, reactions contained 1.0 M HIV IN
Protocol: For HIV-1 integrase, reactions contained […] HIV IN, 1.0 μM U5 21/21 substrate (Katz & Skalka, Ann. Rev. Biochem. 63: 133-173, 1994; Coffin et al., Retroviruses, Cold Spring Harbor Laboratory, 1997) in 22 mM Hepes, pH 7.5, 5.1 mM DTT, 6% glycerol, 6.66% DMSO, 50 mM KCl and 10 mM MnCl2. Conditions were as described for ASV IN, except that the final incubation time was 60 min.

[12] = system: ASV-based vector; assay: Stable transduction of HeLa cells by ASV neo vector; type: cell-based; conditions: 24 h, read-out: IC50, reduction in number of cells stably transduced by ASV vector
Protocol: as §1, §2

[13] = system: ASV vector; assay: organism not typed; type: cell-based; conditions: HeLa, 24 h, read-out: inhibition of integration (host-viral junction DNA)
[14] = system: ASV vector; assay: Nuclear import: LTR-LTR circle junctions in ASV-infected HeLa cells; type: cell-based
[15] = molecular target: DNA-PK (Homo sapiens, UniProt P78527); conditions: cited from earlier work
[16] = molecular target: mTOR (Homo sapiens, UniProt P42345); conditions: cited from earlier work
[17] = system: 293T cells; assay: Cytotoxicity in 293T cells; conditions: conditions of the transduction test
[18] = system: neomycin phosphotransferase II; assay: Expression of neo reporter in stably transduced HeLa cells (Western blot); type: cell-based; conditions: 24 hr, up to 4 mM caffeine
Protocol: Western Blot Analyses. […] Cells were then harvested, lysed, and lysates were subjected to electrophoresis in a 10% SDS polyacrylamide gel. The separated proteins were then transferred to a PVDF membrane and the filter was treated with neomycin phosphotransferase II antibody (Upstate Biotech). Bands were detected using a chemi-luminiscence assay.

[19] = system: HIV-1-based vector; assay: Transduction of parental GM847 cells treated with doxycycline; type: cell-based
From the text: To examine the role of ATR more directly, the inventors examined the efficiency of retroviral DNA integration and transduction in cells defective in ATR function. […] Cells that synthesize the dominant-negative ATRkd protein (doxycycline-inducible expression) are viable, but show deficiencies in DNA repair that are distinct from those in cells deficient in ATM.
Because ATR was also implicated in the regulation of Vpr-induced G2/M arrest, transduction of ATRkd-expressing cells by the multiply attenuated HIV-1-based vector was also evaluated.

[20] = system: PCNA; assay: PCNA Western blot in nocodazole-treated 293T cells; type: cell-based; conditions: nocodazole 1 μg/ml, 24 hrs
Protocol: To determine the efficiency of the nocodazole arrest, cells were assayed for expression of the proliferating-cell nuclear antigen (PCNA) by Western blotting with an anti-PCNA antibody. PCNA accumulates in cells as they enter S phase, but is rapidly degraded in other phases of the cell cycle. (Takase, K et al. Reversible G1 arrest induced by dimethyl sulfoxide in human lymphoid cell lines: kinetics of the arrest and expression of the cell cycle marker proliferating cell nuclear antigen in Raji cells. Cell Growth Differ 1992, 3:515-521).

[21] = system: PCNA; assay: PCNA Western blot in nocodazole-treated GM847/ATRkd cells; type: cell-based, human; conditions: nocodazole 1 μg/ml
Protocol: GM847/ATRkd cells were plated at a density of 2×10^4 cells per well of 24-well plate, in the presence or absence of doxycycline (5 μg/ml) and nocodazole (1 μg/ml).
To examine the role of ATR in growth-arrested cells, the GM847/ATRkd cells were treated with nocodazole in addition to doxycycline.

[22] = system: retroviral transduction of HeLa cells; assay: Retroviral transduction of HeLa cells treated with mTOR inhibitor
From the text: To determine if mTOR is involved in retroviral transduction, the inventors infected HeLa cells and treated them with the mTOR-specific inhibitor, rapamycin.

[23] = system: macrophage-tropic (R5) HIV-1 strain, ADA; assay: HIV-1 ADA replication in PBMCs (p24 antigen); type: cell-based; conditions: Human immunodeficiency virus 1, PBMC, p24 at 6 days post-infection
[24] = system: BRCA1 phosphorylated on serine 1423; assay: BRCA1 serine 1423 phosphorylation in PBMCs (Western blot); type: cell-based, human
From the text: (§3) To establish if HIV-1 infection triggers the DNA damage response that is controlled by these kinases, human PBMCs were infected with the HIV-1 NL4-3 strain and analyzed by Western blotting to determine the levels of phosphorylation by ATM and ATR in these cells. Western blotting was sequentially performed with an anti pBRCA1 (Bethyl Laboratories, Montgomery, Tex., cat # A300-008A) or an anti-Ku86 antibody (Santa Cruz, sc-9034, Santa Cruz, Calif.). For detection of the p53 phosphorylated on serine 15 residue, Western blotting was performed with a rabbit polyclonal antibody from Cell Signaling Technology, Beverly, Mass. (cat # 9284S).

[25] = system: p53 phosphorylated on serine 15; assay: p53 serine 15 phosphorylation in NL4-3-infected PBMCs (Western blot); type: cell-based, human; conditions: 24 hrs
From the text: as §3

[26] = cited from earlier work

Sequence of ATM kinase (Q13315 whole entry): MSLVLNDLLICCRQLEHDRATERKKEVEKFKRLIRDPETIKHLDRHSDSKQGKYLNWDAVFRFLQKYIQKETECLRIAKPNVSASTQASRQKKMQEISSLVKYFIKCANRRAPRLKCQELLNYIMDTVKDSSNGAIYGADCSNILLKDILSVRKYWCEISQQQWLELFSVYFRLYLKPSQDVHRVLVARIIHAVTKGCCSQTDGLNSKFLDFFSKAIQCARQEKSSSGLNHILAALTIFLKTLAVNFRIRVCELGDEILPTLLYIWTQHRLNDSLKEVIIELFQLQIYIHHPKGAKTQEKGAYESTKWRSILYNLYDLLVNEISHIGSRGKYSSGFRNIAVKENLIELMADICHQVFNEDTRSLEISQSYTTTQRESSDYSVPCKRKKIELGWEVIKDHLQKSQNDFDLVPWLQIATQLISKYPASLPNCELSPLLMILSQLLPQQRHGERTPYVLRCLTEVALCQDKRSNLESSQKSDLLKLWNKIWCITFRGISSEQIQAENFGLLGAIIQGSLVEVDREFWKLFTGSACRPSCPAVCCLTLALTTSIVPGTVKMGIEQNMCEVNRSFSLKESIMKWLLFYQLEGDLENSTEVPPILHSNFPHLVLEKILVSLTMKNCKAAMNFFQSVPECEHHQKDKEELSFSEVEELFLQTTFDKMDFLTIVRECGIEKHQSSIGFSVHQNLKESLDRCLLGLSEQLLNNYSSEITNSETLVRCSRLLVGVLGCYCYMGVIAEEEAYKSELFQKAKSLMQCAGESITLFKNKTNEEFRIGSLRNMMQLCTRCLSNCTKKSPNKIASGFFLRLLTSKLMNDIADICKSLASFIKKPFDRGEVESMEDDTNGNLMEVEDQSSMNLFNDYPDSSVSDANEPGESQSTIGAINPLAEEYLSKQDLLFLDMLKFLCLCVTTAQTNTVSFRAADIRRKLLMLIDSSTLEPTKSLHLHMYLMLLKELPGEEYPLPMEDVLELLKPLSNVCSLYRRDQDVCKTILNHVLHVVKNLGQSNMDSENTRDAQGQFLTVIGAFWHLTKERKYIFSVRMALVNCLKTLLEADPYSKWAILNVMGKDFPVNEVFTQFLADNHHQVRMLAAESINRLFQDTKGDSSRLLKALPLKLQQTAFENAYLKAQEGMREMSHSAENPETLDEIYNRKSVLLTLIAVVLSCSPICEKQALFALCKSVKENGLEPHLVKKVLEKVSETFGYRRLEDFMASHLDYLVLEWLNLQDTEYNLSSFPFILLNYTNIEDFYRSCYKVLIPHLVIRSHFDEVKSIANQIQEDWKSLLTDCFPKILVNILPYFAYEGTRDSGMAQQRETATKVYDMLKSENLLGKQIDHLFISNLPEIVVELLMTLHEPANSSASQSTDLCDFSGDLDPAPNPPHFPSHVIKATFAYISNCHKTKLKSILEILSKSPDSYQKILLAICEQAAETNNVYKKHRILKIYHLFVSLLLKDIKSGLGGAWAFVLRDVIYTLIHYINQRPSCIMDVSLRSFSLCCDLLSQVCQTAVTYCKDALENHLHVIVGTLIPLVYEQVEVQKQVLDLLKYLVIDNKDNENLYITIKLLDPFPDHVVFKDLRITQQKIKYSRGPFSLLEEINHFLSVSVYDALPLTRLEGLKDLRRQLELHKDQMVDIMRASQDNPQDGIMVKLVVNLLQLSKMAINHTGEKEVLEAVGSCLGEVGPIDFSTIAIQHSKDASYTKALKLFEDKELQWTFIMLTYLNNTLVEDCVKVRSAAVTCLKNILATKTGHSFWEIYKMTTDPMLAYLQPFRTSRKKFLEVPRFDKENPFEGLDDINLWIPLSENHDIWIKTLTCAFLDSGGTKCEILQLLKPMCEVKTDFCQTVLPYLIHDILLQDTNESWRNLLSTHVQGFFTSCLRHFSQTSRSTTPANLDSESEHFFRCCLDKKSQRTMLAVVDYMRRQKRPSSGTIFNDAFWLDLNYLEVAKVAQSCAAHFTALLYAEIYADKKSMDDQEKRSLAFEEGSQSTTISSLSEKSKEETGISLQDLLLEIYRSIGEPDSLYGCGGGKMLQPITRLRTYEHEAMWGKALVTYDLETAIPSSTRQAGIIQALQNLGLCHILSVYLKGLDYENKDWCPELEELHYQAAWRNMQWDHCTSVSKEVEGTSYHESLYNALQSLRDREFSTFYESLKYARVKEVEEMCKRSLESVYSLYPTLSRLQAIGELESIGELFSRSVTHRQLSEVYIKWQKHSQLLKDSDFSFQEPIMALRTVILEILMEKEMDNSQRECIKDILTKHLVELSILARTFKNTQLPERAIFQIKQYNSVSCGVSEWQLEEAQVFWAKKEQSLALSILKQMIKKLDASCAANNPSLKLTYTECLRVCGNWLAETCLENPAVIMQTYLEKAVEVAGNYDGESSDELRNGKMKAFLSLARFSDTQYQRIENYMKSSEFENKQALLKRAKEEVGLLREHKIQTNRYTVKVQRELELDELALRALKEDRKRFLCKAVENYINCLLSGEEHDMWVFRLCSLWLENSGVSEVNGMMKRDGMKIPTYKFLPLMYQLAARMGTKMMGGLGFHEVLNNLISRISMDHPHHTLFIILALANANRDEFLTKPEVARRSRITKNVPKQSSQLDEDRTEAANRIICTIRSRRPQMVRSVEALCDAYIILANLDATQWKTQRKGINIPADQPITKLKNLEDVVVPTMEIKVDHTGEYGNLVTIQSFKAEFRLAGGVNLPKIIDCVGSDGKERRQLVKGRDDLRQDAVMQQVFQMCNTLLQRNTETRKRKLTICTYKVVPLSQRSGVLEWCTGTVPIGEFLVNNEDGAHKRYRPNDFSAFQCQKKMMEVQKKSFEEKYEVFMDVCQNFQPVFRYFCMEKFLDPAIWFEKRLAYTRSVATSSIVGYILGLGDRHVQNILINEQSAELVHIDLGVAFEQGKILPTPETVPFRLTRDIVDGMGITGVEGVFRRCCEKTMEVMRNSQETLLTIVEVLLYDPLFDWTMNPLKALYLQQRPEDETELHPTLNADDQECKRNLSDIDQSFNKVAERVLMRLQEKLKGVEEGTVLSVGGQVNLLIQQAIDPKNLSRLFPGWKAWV

Cn1c(=O)c2c(ncn2C)n(C)c1=O [caffeine, 1,3,7-trimethylxanthine]
IC50 [1]: 1000 to 2000 µM | IC50 [2]: ~1500 µM | effect on amount of viral DNA detected [3]: only a modest effect | transduction by multiply attenuated HIV-1-based vector (lacking vpr, vif, vpu, nef) ([4]; 293T cells, dividing and nocodazole-arrested): inhibited | HIV-transduction of dividing cells ([4]; exponentially dividing 293T cells, caffeine 24 h, dose-dependent): inhibited | HIV-transduction of nocodazole-arrested cells ([4]; nocodazole-arrested 293T cells, caffeine 24 h, dose-dependent): inhibited | cytotoxicity [5]: no visible cytotoxicity | IC50 [6]: 1000 to 2000 µM | drop in HIV-1 p24 antigen levels [7]: three | p24 antigen levels vs control [7]: reached the control level | decrease in HIV-1 p24 antigen vs NL4-3 infected control [7]: 9 fold | inhibition of NL4-3 growth [7]: approximately 9 fold | cellular cytotoxicity (XTT assay) [8]: did not show any significant cellular cytotoxicity | level of 2-LTR junctions [9]: No significant inhibitory effect | transduction of terminally differentiated primary human macrophages [10]: inhibit | processing activity of HIV-1 integrase [11]: unaffected | IC50 [12]: ~800 µM | inhibition at 4000 µM [13]: 88% | formation of circle junctions ([14]; 2 mM caffeine): not significantly affected | formation of circle junctions ([14]; 4 mM caffeine): only a modest decrease | sensitivity of DNA-PK to caffeine [15]: not sensitive | inhibition of mTOR in vitro [16]: inhibits | cytotoxicity [17]: No caffeine cytotoxicity | amount of reporter protein (neomycin phosphotransferase) [18]: no reduction

C[C@H]1c2cccc(O)c2C(=O)C2=C(O)[C@]3(O)C(=O)C(C(N)=O)=C(O)[C@@H](N(C)C)[C@@H]3[C@@H](O)[C@@H]21 [doxycycline]
effect on transduction of parental cells [19]: no effect

COC(=O)Nc1nc2ccc(C(=O)c3cccs3)cc2[nH]1 [nocodazole]
amount of PCNA relative to exponentially dividing cells [20]: ≤ 5% | amount of PCNA relative to exponentially dividing cells [21]: 10-20%

CO[C@H]1C[C@@H]2CC[C@@H](C)[C@@](O)(O2)C(=O)C(=O)N2CCCC[C@H]2C(=O)O[C@H]([C@H](C)C[C@@H]2CC[C@@H](O)[C@H](OC)C2)CC(=O)[C@H](C)/C=C(\C)[C@@H](O)[C@@H](OC)C(=O)[C@H](C)C[C@H](C)/C=C/C=C/C=C/1C [rapamycin]
effect on retroviral transduction [22]: no effect

Cn1cnc2c1c(=O)[nH]c(=O)n2C [theobromine, 3,7-dimethylxanthine]
IC50 [23]: ~100 µM | inhibition of NL4-3 growth [7]: ~2 fold

Cn1c(=O)c2[nH]cnc2n(C)c1=O [theophylline, 1,3-dimethylxanthine]
IC50 [23]: ~60 µM | BRCA1 phosphorylation (serine 1423) ([24]; NL4-3-infected PBMCs, 24 hrs): suppressed | basal phosphorylation of BRCA1 on serine 1423 ([24]; PBMCs, basal): failed to suppress | p53 phosphorylation (serine 15) [25]: suppressed | drop in HIV-1 p24 antigen levels [7]: four-fold | p24 antigen levels vs control [7]: reached the control level | decrease in HIV-1 p24 antigen vs NL4-3 infected control [7]: 9 fold | inhibition of NL4-3 growth [7]: ~5 fold | cellular cytotoxicity (XTT assay) [8]: did not show any significant cellular cytotoxicity | concentration reached in plasma of theophylline-treated patients [26]: 28 to 110 µM
